Earlier results, collected in patent US10568327B1, “Method of controlling phytopathogenic diseases on turfgrass” (Syngenta Crop Protection LLC, priority 2012, dated 2020).
Read-outs that look alike come from different tables or passages of the source.

Test system: creeping bentgrass greens

In the case of `CSC(=O)c1cccc2nnsc12` [acibenzolar-S-methyl, S-methyl benzo[1,2,3]thiadiazole-7-carbothioate], the Turf quality (6.1 grams/1,000 square meters, with reduced chlorothalonil rates, creeping bentgrass greens, Fry et al. 2006) is given as “below standard” and the Turf quality (with chlorothalonil at lower than recommended rate, creeping bentgrass putting greens, Zhang et al. 2005) is given as “unacceptable”.
